Measured values reported in PMC4955970, “Stable, synthetic analogs of diadenosine tetraphosphate inhibit rat and human P2X3 receptors and inflammatory pain” (Molecular Pain, 2016).
“Also recorded” adds a separate entry of the source. Read-outs that look alike come from different tables or passages of the source.

Assays:
Format in all cases: cell-based
[1] = biological target: T1, rat P2X7 receptors (Rattus norvegicus, UniProt Q64663); test: Whole-cell patch clamp on HEK293 cells expressing rat P2X7 receptors (ATP-induced currents); settings: 1 µM; 10 µM ATP every 2 min
T1 construct: expressed in transfected cells; host or cells: HEK293
T1 sequence (Q64663 1-595): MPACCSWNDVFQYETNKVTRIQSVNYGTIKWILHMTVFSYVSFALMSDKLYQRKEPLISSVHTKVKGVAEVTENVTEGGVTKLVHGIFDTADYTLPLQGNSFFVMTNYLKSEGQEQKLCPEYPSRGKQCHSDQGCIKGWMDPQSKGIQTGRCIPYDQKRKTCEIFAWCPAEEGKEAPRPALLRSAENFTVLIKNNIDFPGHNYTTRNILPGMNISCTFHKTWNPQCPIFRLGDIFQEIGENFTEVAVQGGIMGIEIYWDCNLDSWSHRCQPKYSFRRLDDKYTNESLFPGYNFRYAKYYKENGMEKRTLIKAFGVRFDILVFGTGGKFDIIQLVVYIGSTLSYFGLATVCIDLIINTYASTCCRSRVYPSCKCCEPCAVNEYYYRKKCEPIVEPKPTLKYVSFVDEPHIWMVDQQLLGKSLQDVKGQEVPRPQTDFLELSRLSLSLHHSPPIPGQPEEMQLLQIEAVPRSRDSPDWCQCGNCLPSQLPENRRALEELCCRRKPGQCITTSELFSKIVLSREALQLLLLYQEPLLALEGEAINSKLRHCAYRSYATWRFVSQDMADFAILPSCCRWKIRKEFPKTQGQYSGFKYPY

[2] = biological target: T2, native P2X3Rs in TG neurons (Rattus norvegicus, UniProt P49654); test: Whole-cell recording of α,β-meATP currents in cultured trigeminal ganglion (TG) neurons; settings: read-out: inhibition of sustained residual component in TG neurons
T2 construct: endogenous in cells; host or cells: cultured rat trigeminal ganglion (TG) or dorsal root ganglion (DRG) neurons
T2 sequence (P49654 1-397): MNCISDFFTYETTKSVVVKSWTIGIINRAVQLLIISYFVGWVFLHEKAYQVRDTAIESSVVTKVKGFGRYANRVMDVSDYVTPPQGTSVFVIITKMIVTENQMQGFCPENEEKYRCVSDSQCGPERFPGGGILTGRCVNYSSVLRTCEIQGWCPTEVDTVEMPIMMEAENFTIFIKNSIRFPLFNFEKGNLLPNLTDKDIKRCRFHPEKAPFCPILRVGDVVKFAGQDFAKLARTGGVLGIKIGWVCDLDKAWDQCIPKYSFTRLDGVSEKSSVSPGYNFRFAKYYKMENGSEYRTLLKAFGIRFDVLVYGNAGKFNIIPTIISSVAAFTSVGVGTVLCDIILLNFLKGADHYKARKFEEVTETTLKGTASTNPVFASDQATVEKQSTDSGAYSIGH
T2 sequence (P49653 1-472 partner): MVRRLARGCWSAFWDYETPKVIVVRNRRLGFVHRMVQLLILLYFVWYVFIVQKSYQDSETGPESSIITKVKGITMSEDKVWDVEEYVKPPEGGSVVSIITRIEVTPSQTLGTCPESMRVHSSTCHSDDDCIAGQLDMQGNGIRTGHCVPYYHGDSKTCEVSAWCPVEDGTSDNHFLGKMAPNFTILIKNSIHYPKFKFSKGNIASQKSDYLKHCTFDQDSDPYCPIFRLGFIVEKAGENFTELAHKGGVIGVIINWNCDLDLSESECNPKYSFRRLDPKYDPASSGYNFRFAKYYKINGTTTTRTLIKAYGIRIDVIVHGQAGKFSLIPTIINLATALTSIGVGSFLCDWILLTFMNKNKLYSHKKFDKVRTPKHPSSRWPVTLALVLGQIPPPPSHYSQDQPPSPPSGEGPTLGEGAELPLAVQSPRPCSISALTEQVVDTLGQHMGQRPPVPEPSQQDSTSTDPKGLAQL
Method: (§1) Rat trigeminal, nodose, or dorsal root ganglion (TG, NG, and DRG, respectivley) neurons in culture were prepared as described previously.[46],[47] Neurons were plated on poly-L-lysine (0.2 mg/ml)-coated Petri dishes and cultured for one to two days under an atmosphere containing 5% CO2. Cells were used within two days of plating when they lacked processes. HEK293T cells were prepared as reported previously[32],[48] and transfected with rat or human full-length P2X3 cDNA subcloned into pIRES2-EGFP (Clontech, Mountain View, CA, USA).
(§2) TG, NG, DRG, or HEK cells were recorded in the whole-cell configuration while being continuously superfused (at 2 ml/min) with control solution containing (in mM): 152 NaCl, 5 KCl, 1 MgCl2, 2 CaCl2, 10 glucose, and 10 HEPES; pH was adjusted to 7.4 with NaOH and osmolarity was adjusted to 320 mOsM with glucose. […] Responses to selective P2X3R agonist α,β-methylene-ATP (α,β-meATP; resistant to ectoATPase hydrolysis, Sigma-Aldrich) were measured using an EPC-9 amplifier operated by HEKA Patch Master software (HEKA Electronik, Germany). Cells were voltage-clamped at −70 mV. In most cells, series resistance was compensated by 80%. To determine EC50 values, dose-response curves were constructed for α,β-meATP by administering different agonist doses same cells and fitting data to a logistic equation (Origin 8.0, Microcal, Northampton, MA). […]

[3] = biological target: T3, native P2X3Rs in TG neurons (Rattus norvegicus, UniProt P49654); test: as above; settings: read-out: inhibition of peak currents in TG neurons
T3 construct: endogenous in cells; host or cells: cultured rat trigeminal ganglion (TG) or dorsal root ganglion (DRG) neurons
T3 sequence (P49654 1-397): T2 sequence (P49654 1-397)
Method: as §1, §2

[4] = biological target: T4, native P2X3Rs in DRG neurons (Rattus norvegicus, UniProt P49654); test: Whole-cell recording of α,β-meATP currents in cultured dorsal root ganglion (DRG) neurons; settings: DRG neuron, read-out: inhibition of sustained residual component in DRG neurons
T4 construct: effects of AppNHppA on native P2X3Rs in TG, DRG, and NG neurons were investigated; endogenous in cells; host or cells: cultured rat trigeminal ganglion (TG) or dorsal root ganglion (DRG) neurons
T4 sequence (P49654 1-397): T2 sequence (P49654 1-397)
T4 sequence (P49653 1-472 partner): T2 sequence (P49653 1-472 partner)
Method: as §1, §2

[5] = biological target: T5, native P2X3Rs in DRG neurons (Rattus norvegicus, UniProt P49654); test: as above; settings: DRG neuron, read-out: inhibition of peak currents in DRG neurons
T5 construct: effects of AppNHppA on native P2X3Rs in TG, DRG, and NG neurons were investigated; endogenous in cells; host or cells: cultured rat trigeminal ganglion (TG) or dorsal root ganglion (DRG) neurons
T5 sequence (P49654 1-397): T2 sequence (P49654 1-397)
Method: as §1, §2

For Nc1ncnc2c1ncn2[C@@H]1O[C@H](COP(=O)(O)OP(=O)(O)NP(=O)(O)OP(=O)(O)OC[C@H]2O[C@@H](n3cnc4c(N)ncnc43)[C@H](O)[C@@H]2O)[C@@H](O)[C@H]1O [AppNHppA, diadenosine 5′,5′′′-P^1,P^4-(β,γ-imido)tetraphosphate], the “HAD or partial agonism effect on P2X7R-mediated currents” value [1] was “did not produce any HAD or partial agonism effects; also recorded: does not inhibit”, the inhibition at 1 µM [2] was 15 ± 6% and the inhibition at 1 µM [3] was 80.3 ± 4.4%. For the same compound, the inhibition at 1 µM [4] was 18 ± 6% and the inhibition at 1 µM [5] was 79.2 ± 5.6%.
